In patent US20160151451A1, “METHOD FOR GENERATING CARDIOMYOCYTES” (Korea Advanced Institute of Science and Technology (KAIST), priority 2014, published 2016):
Counter-ions that a name gives are not always drawn. Like-named read-outs stand apart in the source and are kept apart here.

Legend:
[1] = system: mouse ESC-derived Flk1^+ MPCs; test: Differentiation of mouse ESC-derived Flk1^+ MPCs into cardiomyocytes in OP9 co-culture; assay type: cell-based; details: for optimal dose of reagent, determined by total and relative number of differentiated cTnT^+ cells: dose optimization, FIGS. 2A-D
Description: (§1) For induction of Flk1^+ MPCs, ESCs and iPSCs were cultured without LIF and plated on a 0.1% gelatin-coated dish at cell density 1-1.5×10^3 cells/cm^2 in the differentiation medium (alpha MEM, Invitrogen) with 10% fetal bovine serum (FBS) (Welgene), 2-mercaptoethanol (Invitrogen), L-glutamine (Invitrogen), and antibiotics (Invitrogen), which was changed every 2 days, for 4.5 days. At day 4.5, differentiated ESCs and iPSCs were harvested with 0.25% trypsin-EDTA and antigen recovery was performed in the differentiation medium for 30 min in an incubator. Then, cells were washed using phosphate buffered saline (PBS)/2% FBS and incubated with biotin-conjugated anti-mouse Flk1^+ antibody (clone AVAS 12a1, eBioscience) and […] MicroBeads (Miltenyi Biotec). Flk1^+ MPCs were sorted by AutoMACS Pro Separator (Miltenyi Biotec). For induction of cardioblasts and cardiomyocytes, sorted Flk1^+ MPCs were plated onto the MMC (AG scientific) treated confluent OP9 cells at a density of 5-10×10^3 cells/cm^2. For the induction of cardiomyocytes in a feeder free system, ESCs were plated on a 0.1% gelatin coated dish at cell density 3×10^3 cells/cm^2 without OP9 cells. Cells were cultured in the differentiation medium which was changed every 2 days.
CsA (a gift from Novartis Pharma, Korea), 6-Hydroxy-2,5,7,8-tetramethylchroman-2-carboxylic acid (Trolox, Sigma Aldrich), and EW7197 (Son et al., 2014) were dissolved in dimethyl sulfoxide (DMSO, Sigma Aldrich). Y27632 (Calbiochem) was dissolved in distilled water. Reagents were treated at the time of medium change. DMSO was treated as a control vehicle.
(§2) Differentiating Flk1^+ MPCs on OP9 cells were harvested with 0.25% trypsin-EDTA or dissociation buffer (Invitrogen). […] To analyze cTnT^+ cells, the cells were permeabilized using Cytofix/Cytoperm solution (BD Biosciences) for 15 min. […] After washing in 10% Perm/Wash buffer (BD Biosciences), the cells were incubated for 10 min with Cy5-conjugated anti-mouse IgG antibody (Invitrogen). The cells were washed with 10% Perm/Wash buffer (BD Biosciences) and then analyzed. In live cell analysis and sorting, dead cells were excluded using 4,6-diamidino-2-phenylindole (DAPI, Invitrogen) and OP9 cells were excluded from Flk1^+ MPCs by gating in flow cytometry. The differentiated cardiomyocytes were sorted using αMHC-GFP. Analyses and sorting were performed by FACS Aria II (Beckton Dickinson). Data were analyzed using FlowJo Version 7.5.4 software (TreeStar).
The cells were fixed with 2% paraformaldehyde (PFA) and blocked with 5% goat (or donkey) serum in PBST (0.1% Tween 20 in PBS) for 1 hr at room temperature (RT). […] After being washed with PBST 3 times, the cells were incubated for 2 hr at room temperature with the following secondary antibodies: Cy3-conjugated anti-mouse IgG antibody (Invitrogen), FITC-conjugated anti-rat IgG (Jackson ImmunoResearch), and Cy3-conjugated anti-rabbit IgG (Jackson ImmunoResearch) antibodies. After being stained with the antibodies, the cells were mounted in fluorescent mounting medium (DAKO). Nuclei were stained with 4,6-diamidino-2-phenylindole (DAPI, Invitrogen). Immunofluorescence staining of mitochondria was performed using MitoTracker Orange CMTMRos probe (Invitrogen) and cells were incubated with probe for 30 to 60 min at 37° C. in serum free medium before fixation. Immunocytochemistry stained images were obtained using an LSM510 confocal fluorescence microscope (Carl Zeiss). Live images of cardiomyocyte differentiation process and αMHC GFP^+ cardiomyocytes were obtained using Axiovert 200M microscope (Carl Zeiss) equipped with AxioCam MRm (Carl Zeiss). Images were analyzed using Image J software (http://imagej.nih.gov/ij/, 1.47V, NIH, USA). Phase-contrast images including beating cardiomyocytes were obtained using an Infinity X digital camera and DpxView LE software (DeltaPix).

PCBs = test: PCB-derived cardiomyocyte differentiation with indicated reagents after PCB induction, OP9 co-culture; assay type: cell-based, mouse; details: FIGS. 14B, 14C
Description: as §2

[2] = system: mouse ESC-derived Flk1^+ MPCs; test: Induction of PDGFRα^+Flk1^− cardioblasts (PCBs) from mouse ESC-derived Flk1^+ MPCs; assay type: cell-based; details: each reagent of CsAYTE alone; FIGS. 11A, 11B
Description: as §1
Differentiating Flk1^+ MPCs on OP9 cells were harvested with 0.25% trypsin-EDTA or dissociation buffer (Invitrogen). […] To analyze cTnT^+ cells, the cells were permeabilized using Cytofix/Cytoperm solution (BD Biosciences) for 15 min. […] The cells were washed with 10% Perm/Wash buffer (BD Biosciences) and then analyzed. […] Data were analyzed using FlowJo Version 7.5.4 software (TreeStar).
The cells were fixed with 2% paraformaldehyde (PFA) and blocked with 5% goat (or donkey) serum in PBST (0.1% Tween 20 in PBS) for 1 hr at room temperature (RT). […] Immunocytochemistry stained images were obtained using an LSM510 confocal fluorescence microscope (Carl Zeiss). […] Images were analyzed using Image J software (http://imagej.nih.gov/ij/, 1.47V, NIH, USA). […]

[3] = system: delayed rectifying K^+ channels
[4] = system: voltage-gated Na^+ channels; assay type: cell-based, mouse
ROCK = assay type: cell-based
Source text: The meaning of “Rho-associated protein kinase (ROCK) inhibitor” is well known in the art. An assay for determining a ROCK suppressor or ROCK inhibitor can include for example the following method. ROCKs were discovered as the first effectors of Rho and they induce the formation of stress fibers and focal adhesions by phosphorylating MLC (myosin light chain). Therefore, an assay for determining ROCK suppression is confirming MLC phosphorylation inhibition such as by Western blotting.

T-type Ca^2+ channels = test: Voltage-clamp recording of T-type Ca^2+ current (ICaT) in M^+CMs; assay type: cell-based, mouse; details: 1 μM
[5] = in combination with CsA, data not shown

NC(=O)c1ncn([C@@H]2O[C@H](CO)[C@@H](O)[C@H]2O)c1N [AICAR]
effect on Flk1^+ MPC differentiation into cTnT^+ cells [1]: rather inhibited or did not affect

Cc1c[nH]c(-c2cnc(NCCNc3ccc(C#N)cn3)nc2-c2ccc(Cl)cc2Cl)n1 [CHIR99021]
effect on Flk1^+ MPC differentiation into cTnT^+ cells [1, 5]: rather inhibited or did not affect

c1cc(-c2cnn3cc(-c4ccc(OCCN5CCCCC5)cc4)cnc23)ccn1 [Compound C]
effect on Flk1^+ MPC differentiation into cTnT^+ cells [1, 5]: rather inhibited or did not affect

C[C@H](NC(=O)Cc1cc(F)cc(F)c1)C(=O)N[C@H](C(=O)OC(C)(C)C)c1ccccc1 [DAPT]
effect on Flk1^+ MPC differentiation into cTnT^+ cells [1, 5]: rather inhibited or did not affect

Cc1cccc(-c2[nH]c(CNc3ccccc3F)nc2-c2ccc3ncnn3c2)n1 [EW7197, N-[[4-([1,2,4]triazolo[1,5-a]pyridin-6-yl)-5-(6-methylpyridin-2-yl)-1H-imidazol-2-yl]methyl]-2-fluoroaniline]
effect of omission of the reagent from CsAYTE on population of cTnT^+ and αMHC-GFP^+ cells (PCBs): slightly increased
Flk1^+ MPC differentiation into PCBs by each reagent [2]: 45.3%
optimal dose of reagent, determined by total and relative number of differentiated cTnT^+ cells [1]: 1 µg/mL

CCC(=O)NC[C@H](Cc1ccc(OCCc2nc(-c3ccccc3)oc2C)cc1)N/C(C)=C\C(=O)c1ccc(C(F)(F)F)cc1 [GW6471]
effect on Flk1^+ MPC differentiation into cTnT^+ cells [1, 5]: rather inhibited or did not affect

Cn1c2ccccc2c2c3c(c4c5ccccc5n(CCC#N)c4c21)CNC3=O [Go6976]
effect on Flk1^+ MPC differentiation into cTnT^+ cells [1, 5]: rather inhibited or did not affect

CCCCCCOC(=O)[C@]1(O)C[C@@H]2O[C@@]1(C)n1c3ccccc3c3c4c(c5c6ccccc6n2c5c31)C(=O)NC4 [KT5720]
effect on Flk1^+ MPC differentiation into cTnT^+ cells [1, 5]: rather inhibited or did not affect

COC(=O)[C@@]1(OC)C[C@H]2O[C@]1(C)n1c3ccccc3c3c4c(c5c6ccccc6n2c5c31)C(=O)N(C)C4 [KT5823]
effect on Flk1^+ MPC differentiation into cTnT^+ cells [1, 5]: rather inhibited or did not affect

O=S(=O)(c1cccc2c(I)cccc12)N1CCCNCC1 [ML7]
effect on Flk1^+ MPC differentiation into cTnT^+ cells [1, 5]: rather inhibited or did not affect

COc1cccc(-c2cc(=O)c3ccccc3o2)c1N [PD98059]
effect on Flk1^+ MPC differentiation into cTnT^+ cells [1, 5]: rather inhibited or did not affect

CC[N+](CC)(CC)CC [TEA, tetraethylammonium]
delayed rectifier K^+ current (IK) [3]: inhibited

NC1=N[C@H](O)[C@H]2[C@H]3O[C@]4(O)O[C@@H]([C@@H](O)[C@@]2(N1)[C@@H]4O)[C@]3(O)CO [TTX, tetrodotoxin]
voltage gated Na^+ current (INa) [4]: inhibited

Cc1c(C)c2c(c(C)c1O)CCC(C)(C(=O)O)O2 (stereo not drawn) [Trolox, 6-hydroxy-2,5,7,8-tetramethylchroman-2-carboxylic acid]
Flk1^+ MPC differentiation into PCBs by each reagent [2]: 19.3%
optimal dose of reagent, determined by total and relative number of differentiated cTnT^+ cells [1]: 400 µM

C[C@@H](N)[C@H]1CC[C@H](C(=O)Nc2ccncc2)CC1 [Y27632, [(+)-(R)-trans-4-(1-aminoethyl)-N-(4-pyridyl)cyclohexanecarboxamidedihydrochloride]]
MLC phosphorylation in Flk1^+ MPCs during differentiation (ROCK): inhibits
Flk1^+ MPC differentiation into PCBs by each reagent [2]: 22.0%
optimal dose of reagent, determined by total and relative number of differentiated cTnT^+ cells [1]: 10 µM

COCC(=O)O[C@]1(CCN(C)CCCc2nc3ccccc3[nH]2)CCc2cc(F)ccc2[C@@H]1C(C)C [mibefradil]
T-type Ca^2+ currents (ICaT) (T-type Ca^2+ channels): inhibited
